The target of assay [1] is T1, serotonin 1A (5HT1A) receptor (Rattus norvegicus, UniProt P19327).
T1 construct: The resultant precipitate was used as a rat hippocampal membrane fraction in the following procedures; from tissue; host or cells: hippocampal membrane fraction of male SD rat (7 weeks old; animals from Charles River)
T1 sequence (P19327 1-422): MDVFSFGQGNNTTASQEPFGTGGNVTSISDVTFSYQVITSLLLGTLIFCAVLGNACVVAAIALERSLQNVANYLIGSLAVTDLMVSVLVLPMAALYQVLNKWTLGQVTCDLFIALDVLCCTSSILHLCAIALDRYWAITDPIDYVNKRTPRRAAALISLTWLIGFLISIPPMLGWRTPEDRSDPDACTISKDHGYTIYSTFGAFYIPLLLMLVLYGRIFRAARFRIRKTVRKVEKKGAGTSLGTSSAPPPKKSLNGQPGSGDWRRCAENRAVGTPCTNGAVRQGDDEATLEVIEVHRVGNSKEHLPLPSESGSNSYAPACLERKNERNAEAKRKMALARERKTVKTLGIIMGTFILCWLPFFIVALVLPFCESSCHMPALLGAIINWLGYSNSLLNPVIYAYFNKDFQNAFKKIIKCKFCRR
Put plainly: Affinity for serotonin 1A (5HT1A) receptor: inhibition of 3H-8-OH-DPAT binding to rat hippocampal membrane fraction. The conditions noted are these: test compound as hydrochloride. The method, then: 1. Affinity for serotonin 1A (5HT1A) receptor
(A) Preparation of rat hippocampal membrane fraction
A male SD strain rat (7-week old; Charles River) was decapitated, and brain was taken out therefrom quickly. 50 mM Tris-HCl buffer (pH 7.4) was added to the brain under ice cooling to obtain a suspension. The resultant suspension was homogenized, and then subjected to centrifugation at 48000 g for 15 minutes, to thereby obtain a precipitate. The precipitate was resuspended in the same Tris-HCl buffer as used above. The resultant suspension was incubated at 30° C. for 20 minutes to decompose endogenous serotonin of the rat hippocampal membrane, followed by centrifugation at 48000 g for 15 minutes to thereby obtain a precipitate. The resultant precipitate was used as a rat hippocampal membrane fraction in the following procedures.
(B) Method for the evaluation of the binding ability of ^3 H-8-hydroxy-dipropylaminotetralin (^3 H-8-OH-DPAT) to serotonin 1A receptor
The rat hippocampal membrane fraction prepared in step (A) above (about 100 to 200 μg in terms of proteins) was reacted with 0.5 nM (final concentration) ^3 H-8-OH-DPAT (which is commercially available from DuPont-NEN Research Products) and 10 μM (final concentration) pargyline (which is commercially available from Sigma Chemical Company) at 30° C. for 30 minutes to effect a reaction. The resultant reaction mixture was subjected to suction filtration using a Whatman GF/C filter, to thereby terminate the reaction. The radio-activity of ^3 H-8-OH-DPAT adsorbed on the filter was determined using a liquid scintillation counter. The obtained value is regarded as a total amount (TB) of specifically binding ^3 H-8-OH-DPAT and non-specifically binding ^3 H-8-OH-DPAT.
On the other hand, substantially the same procedure as mentioned above was repeated, except that 10 μM (final concentration) serotonin was added to the ^3 H-8-OH-DPAT and pargyline. The radioactivity of ^3 H-8-OH-DPAT adsorbed on the filter was determined in the same manner as mentioned above. The obtained value is regarded as the amount (NB) of non-specifically binding ^3 H-8-OH-DPAT.
Further, substantially the same procedure as mentioned above was repeated, except that, instead of serotonin, a test compound was used in a predetermined concentration. The radioactivity of ^3 H-8-OH-DPAT adsorbed on the filter was determined in the same manner as mentioned above. The obtained value is regarded as the amount (DTB) of binding ^3 H-8-OH-DPAT.
(C) Calculation of Ki value
The inhibition ratio of the test compound (at a certain concentration) against the binding of 3H-8-OH-DPAT (the inhibition ratio is hereinafter referred to simply as "binding inhibition ratio") was calculated according to the following formula:
Binding inhibition ratio (%)=100-(DTB-NB).div.(TB-NB)×100
With respect to each of the test compounds, the binding inhibition ratios at various concentrations (from a higher concentration to a lower concentration) were determined. The binding inhibition ratios were plotted, taking the logarithmic value of the concentration of test compound as the abscissa value, and the binding inhibition ratio as the ordinate value. Then, a curve was drawn by non-linear least square method.
The Ki value was determined according to the following formula:
[L] is the concentration (0.2 nM) of a radioactive ligand (^3 H-8-OH-DPAT) used in the test;

Assay [2] deals with Suncus murinus (motion sickness emesis). Kind of assay: Activities against motion sickness: acceleration-stimulus induced emesis in suncus. The format is in vivo. The conditions noted are these: 30 min before acceleration-stimulus (4 cm, 1 Hz), observed 10 min, hydrochloride, 4 suncus. The text has this:
The activities of individual compounds against motion sickness were examined using Suncus murinus. Suncus murinus is a small animal belonging to the Soricidae family. It has been known that suncus is likely to suffer from motion sickness and is susceptible to occurrence of emesis [see "Seitai-no-kagaku (Science of living body)", 41, 538 (1990)]. Suncus is likely to show symptoms like the symptoms of human motion sickness under the stimulus of simple acceleration, finally leading to the occurrence of emesis. It has been recognized that motion sickness is caused by the occurrence of disorder in information, such as vision, equilibrium sense and the like, or by a stimulus which has never been memorized. Further, it has been recognized that the disorder in the inner earvestibular nucleus pathway and the high-order function of brain take part in the occurrence of motion sickness. Therefore, medicines capable of suppressing the occurrence of emesis of suncus would be useful for preventing and treating motion sickness, space sickness, emesis, dizziness and the like.
In this test, test compounds were individually administered intraperitoneally to suncus.
The time for occurrence of emesis was measured with respect to each of the test compounds, and the results are shown in Table 3.

The values that follow come from patent publication US5578596A, “2-alkoxy-5,6,7,8-tetrahydroquinoxaline derivatives, and production method and use thereof” (Asahi Kasei Kogyo Kabushiki Kaisha, priority 1992, dated 1996).

Structures are written as SMILES.

By Ki is commonly meant the equilibrium dissociation constant of an inhibitor or competing ligand from its target. Read a high Ki as a looser hold on the target. In assay [1], `Cc1nc2c(nc1OCCCCN1CCN(c3ccccn3)CC1)CCCC2` [Compound 409] came in with an inhibition constant (Ki) of 16 nM.
In assay [1], `CC(C)Oc1cccc(N2CCN(CCCCOc3cnc4c(n3)CCCC4)CC2)n1` [Compound 630, 2-[4-{4-(6-Isopropoxy-2-pyridyl)-1-piperazinyl}butoxy]-5,6,7,8-tetrahydroquinoxaline] registered a Ki of 3 nM. Also, the “Time for occurrence of emesis” value in assay [2] (3 mg/kg intraperitoneal) is recorded as “Emesis did not occur”.
`COc1cccnc1N1CCN(CCCCOc2cnc3c(n2)CCCC3)CC1` [Compound 557, 2-[4-{4-(3-Methoxy-2-pyridyl)-1-piperazinyl}butoxy]-5,6,7,8-tetrahydroquinoxaline] yielded a Ki in assay [1] of 1.5 nM.
In the case of `c1cnc(N2CCN(CCCCOc3cnc4c(n3)CCCC4)CC2)nc1` [Compound 301, 2-[4-{4-(2-Pyrimidinyl)-1-piperazinyl}butoxy]-5,6,7,8-tetrahydroquinoxaline], the Ki in assay [1] came to 6 nM. Moreover, the “Time for occurrence of emesis” value in assay [2] (3 mg/kg intraperitoneal) is “Emesis did not occur”.
In assay [1], `FC(F)(F)c1ccnc(N2CCN(CCCCOc3cnc4c(n3)CCCC4)CC2)c1` [Compound 639, 2-[4-{4-(4-Trifluoromethyl-2-pyridyl)-1-piperazinyl}butoxy]-5,6,7,8-tetrahydroquinoxaline] registered a Ki of 11 nM.
In assay [1], `CCCOc1cccc(N2CCN(CCCCOc3cnc4c(n3)CCCC4)CC2)n1` [Compound 629, 2-[4-{4-(6-Propoxy-2-pyridyl)-1-piperazinyl}butoxy]-5,6,7,8-tetrahydroquinoxaline] registered an inhibition constant (Ki) of 1.8 nM. In assay [2] (3 mg/kg intraperitoneal), the “Time for occurrence of emesis” value is “Emesis did not occur”.
In assay [1], `c1ccc(N2CCN(CCCCCOc3cnc4c(n3)CCCC4)CC2)nc1` [Compound 511, 2-[5-{4-(2-Pyridyl)-1-piperazinyl}pentoxy]-5,6,7,8-tetrahydroquinoxaline] returned a Ki of 8.4 nM.
For `Cc1ccnc(N2CCN(CCCCOc3cnc4c(n3)CCCC4)CC2)n1` [Compound 504, 2-[4-{4-(4-Methyl-2-pyrimidinyl)-1-piperazinyl}butoxy]-5,6,7,8-tetrahydroquinoxaline], in assay [1], the affinity, expressed as Ki, was 3.9 nM. In addition, the “Time for occurrence of emesis” value in assay [2] (1 mg/kg intraperitoneal) is recorded as “Emesis did not occur”.
The molecule `Cc1ccc(C)c(N2CCN(CCCCOc3cnc4c(n3)CCCC4)CC2)n1` [Compound 598, 2-[4-{4-(3,6-Dimethyl-2-pyridyl)-1-piperazinyl}butoxy]-5,6,7,8-tetrahydroquinoxaline] came in with a Ki in assay [1] of 25 nM.
`Clc1cccnc1N1CCN(CCCCOc2cnc3c(n2)CCCC3)CC1` [Compound 502, 2-[4-{4-(3-Chloro-2-pyridyl)-1-piperazinyl}butoxy]-5,6,7,8-tetrahydroquinoxaline] gave a Ki in assay [1] of 13 nM.
As for `COc1cc(C)nc(N2CCN(CCCCOc3cnc4c(n3)CCCC4)CC2)n1` [Compound 562, 2-[4-{4-(4-Methoxy-6-methyl-2-pyrimidinyl)-1-piperazinyl}butoxy]-5,6,7,8-tetrahydroquinoxaline], in assay [1], the Ki turned out to be 11 nM. The “Time for occurrence of emesis” value in assay [2] (3 mg/kg intraperitoneal) was “Emesis did not occur”.
In the case of `Cc1cccc(N2CCN(CCCCOc3cnc4c(n3)CCCC4)CC2)n1` [Compound 501, 2-[4-{4-(6-Methyl-2-pyridyl)-1-piperazinyl}butoxy]-5,6,7,8-tetrahydroquinoxaline], the inhibitory constant (Ki) in assay [1] was 0.6 nM. For the same molecule, the “Time for occurrence of emesis” value in assay [2] (1 mg/kg intraperitoneal) is “Emesis did not occur”.
Molecule `c1cnc(N2CCN(CCCCCOc3cnc4c(n3)CCCC4)CC2)nc1` [Compound 512, 2-[5-{4-(2-pyrimidinyl)-1-piperazinyl}pentoxy]-5,6,7,8-tetrahydroquinoxaline] had an inhibition constant (Ki) in assay [1] of 23 nM.
In assay [1], `Cc1cc(C)c(C#N)c(N2CCN(CCCCOc3cnc4c(n3)CCCC4)CC2)n1` [Compound 561, 2-[4-{4-(3-Cyano-4-6-dimethyl-2-pyridyl)-1-piperazinyl}butoxy]-5,6,7,8-tetrahydroquinoxaline] came in with a Ki of 16 nM.
Molecule `c1ccc(N2CCN(CCCOc3cnc4c(n3)CCCC4)CC2)nc1` [Compound 537, 2-[3-{4-(2-Pyridyl)-1-piperazinyl}propoxy]-5,6,7,8-tetrahydroquinoxaline] displayed a Ki in assay [1] of 14 nM.
On the same count and under the same terms, to `c1cnc(N2CCN(CCCOc3cnc4c(n3)CCCC4)CC2)nc1` [Compound 538, 2-[3-{4-(2-pyrimidinyl)-1-piperazinyl}propoxyl]-5,6,7,8-tetrahydroquinoxaline] belongs 25 nM; to `Cc1cc(C)nc(N2CCN(CCCCOc3cnc4c(n3)CCCC4)CC2)n1` [Compound 481, 2-[4-{4-(4,6-Dimethyl-2-pyrimidinyl)-1-piperazinyl}butoxy]-5,6,7,8-tetrahydroquinoxaline], 5.3 nM.
`Clc1cccc(N2CCN(CCCCOc3cnc4c(n3)CCCC4)CC2)n1` [Compound 500, 2-[4-{4-(6-Chloro-2-pyridyl)-1-piperazinyl}butoxy]-5,6,7,8-tetrahydroquinoxaline] displayed an inhibition constant Ki in assay [1] of 2.1 nM. For the same molecule, the “Time for occurrence of emesis” value in assay [2] (1 mg/kg intraperitoneal) was “Emesis did not occur”.
On to `FC(F)(F)c1cccc(N2CCN(CCCCOc3cnc4c(n3)CCCC4)CC2)n1` [Compound 640, 2-[4-{4-(6-Trifluoromethyl-2-pyridyl)-1-piperazinyl}butoxy]-5,6,7,8-tetrahydroquinoxaline], for which the inhibition constant (Ki) in assay [1] came to 5.2 nM.
The molecule `CCOc1cccc(N2CCN(CCCCOc3cnc4c(n3)CCCC4)CC2)n1` [Compound 524, 2-[4-{4-(6-Ethoxy-2-pyridyl)-1-piperazinyl}butoxy]-5,6,7,8-tetrahydroquinoxaline] registered an inhibition constant (Ki) in assay [1] of 1.9 nM. Besides, in assay [2] (1 mg/kg intraperitoneal), the “Time for occurrence of emesis” value is on record as “Emesis did not occur”.
Take `COc1cc(OC)nc(N2CCN(CCCCOc3cnc4c(n3)CCCC4)CC2)n1` [Compound 549, 2-[4-{4-(4,6-Dimethoxy-2-pyrimidinyl)-1-piperazinyl}butoxy]-5,6,7,8-tetrahydroquinoxaline]: the inhibitory constant (Ki) in assay [1] amounted to 6.6 nM.
The same measure, in the same setting: in the case of `Cc1nc2c(nc1OCCCCN1CCN(c3ncccn3)CC1)CCCC2` [Compound 410] it was 24 nM; in that of `N#Cc1cccnc1N1CCN(CCCCOc2cnc3c(n2)CCCC3)CC1` [Compound 514, 2-[4-{4-(3-Cyano-2-pyridyl)-1-piperazinyl}butoxy]-5,6,7,8-tetrahydroquinoxaline], 4.8 nM.
Still for that read-out and setting: to `Cc1cc(C)nc(N2CCN(CCCCOc3cnc4c(n3)CCCC4)CC2)c1` [Compound 569, 2-[4-{4-(4,6-Dimethyl-2-pyridyl)-1-piperazinyl}butoxy]-5,6,7,8-tetrahydroquinoxaline] belongs 6.8 nM.
